Reference: US8299093B2, “Small molecule inhibitors of retroviral assembly and maturation” (New York Blood Center, Inc., priority 2008, dated 2012)
Like-named read-outs stand apart in the source and are kept apart here.

Experiments:
[1] = biological target: HIV-1 capsid (Human immunodeficiency virus type 1 group M subtype B, UniProt P04591); settings: read-out: Binding affinity (Kd); cited from earlier work
[2] = system: HIV-1; settings: cited from earlier work
[3] = system: HIV-1; assay: Inhibition of HIV-1 infectivity (p24 ELISA) in MT-2 cells, laboratory-adapted HIV-1 strains; assay type: cell-based; settings: for IC50: Human immunodeficiency virus 1, MT2, 96 h, MT-2 cells, p24 ELISA day 4; for Activity against a broad range of HIV-1 laboratory-adapted and primary isolates: including one RT-inhibitor-resistant and one protease-inhibitor-resistant isolate (summary of Table 3)
Description: (§1) AZT was used as a positive control in the infectivity assays. In brief, 1×10^4 MT-2 cells (lymphocytes) were infected with HIV-1 at 100 TCID50 (50% tissue culture infective dose, 0.01 MOI [multiplicity of infection]) in 200 μL RPMI 1640 medium containing 10% FBS in the presence or absence of small molecules at graded concentrations overnight. The culture supernatants were then removed and fresh media containing freshly prepared test compounds were added. On the fourth day post-infection, 100 μL of culture supernatants were collected from each well, mixed with equal volume of 5% TRITON X-100® and tested for p24 antigen by ELISA®.

[4] = XTT cytotoxicity assay in MT-2 cells; assay type: cell-based; settings: human; for CC50 at 4 days: MT-2 cells; for CC50: cell type not given
Description: (§2) Briefly, for MT-2 cells, 100 μL of small molecule at graded concentrations was added to an equal volume of cells (5×10^4 cells/ml) in 96-well plates followed by incubation at 37° C. for 4 days, which ran parallel to the neutralization assay in MT-2 (except medium was added instead of virus). In the case of PBMC, 2.5×10^5 cells/mL were used and the cytotoxicity was measured after 7 days. After addition of XTT (PolySciences, Inc.), the soluble intracellular formazan was quantitated calorimetrically at 450 nm 4 hours later with a reference at 620 nm. The CC50 values were calculated.

[5] = XTT cytotoxicity assay in PBMC; assay type: cell-based; settings: human
Description: as §2, with “Cytotoxicity of small molecules in cultures with MT-2 cells and PBMC was measured by the tetrazolium hydroxide XTT (sodium 3′-(1-(phenylamino)-carbonyl)-3,4-tetrazolium-bis(4-methoxy-6-nitro) benzenesulfonic acid hydrate) cytotoxicity assay, as previously described (Jiang et al., 2004). Briefly,” for “Briefly,”

[6] = system: HIV-1 IIIB; assay: Antiviral activity (p24) against HIV-1 IIIB in MT-2; assay type: cell-based; settings: Human immunodeficiency virus 1, subtype B, MT-2, X4, laboratory strain
Description: as §1, with “ELISA®. The IC50 values were calculated by the GraphPad Prism software (GraphPad Software®, Inc.) and the values were classified as IC50<10 μM and IC50>10 μM.” for “ELISA®.”
(§3) The molecules in Tables 3 include the calculated IC50 values and use “A1” to denote IC50<10 μM and “B1” to denote IC50>10 μM and “C1” to denote CC50<50 μM and “D1” to denote […].

[7] = system: HIV-1 MN; assay: Antiviral activity (p24) against HIV-1 MN in MT-2; assay type: cell-based; settings: Human immunodeficiency virus 1, subtype B, MT-2, X4, laboratory strain
Description: as §1, with “ELISA®. The IC50 values were calculated by the GraphPad Prism software (GraphPad Software®, Inc.) and the values were classified as IC50<10 μM and IC50>10 μM.” for “ELISA®.”
as §3

[8] = system: HIV-1 SF2; assay: Antiviral activity (p24) against HIV-1 SF2 in MT-2; assay type: cell-based; settings: Human immunodeficiency virus 1; SF2, subtype B, MT-2, R5X4, laboratory strain
Description: as §1, with “ELISA®. The IC50 values were calculated by the GraphPad Prism software (GraphPad Software®, Inc.) and the values were classified as IC50<10 μM and IC50>10 μM.” for “ELISA®.”
as §3

[9] = system: HIV-1 RF; assay: Antiviral activity (p24) against HIV-1 RF in MT-2; assay type: cell-based; settings: Human immunodeficiency virus 1, subtype B, MT-2, X4, laboratory strain
Description: as §1, with “ELISA®. The IC50 values were calculated by the GraphPad Prism software (GraphPad Software®, Inc.) and the values were classified as IC50<10 μM and IC50>10 μM.” for “ELISA®.”
as §3

[10] = system: HIV-1 BaL; assay: Antiviral activity (p24) against HIV-1 BaL in PBMC; assay type: cell-based; settings: Human immunodeficiency virus 1, subtype B, R5, laboratory strain
Description: as §1, with “ELISA®. The IC50 values were calculated by the GraphPad Prism software (GraphPad Software®, Inc.) and the values were classified as IC50<10 μM and IC50>10 μM.” for “ELISA®.”
(§4) Peripheral blood mononuclear cells (PBMCs) were isolated from the blood of healthy donors by standard density gradient centrifugation using Histopaque-1077 (Sigma). The cells were cultured at 37° C. for 2 hours. Nonadherent cells were collected and resuspended at 5×10^6 cells/ml RPMI-1640 medium containing 10% FBS, 5 μg/ml PHA, and 100 U/ml IL-2 (Sigma), followed by incubation at 37° C. for 3 days. The PHA-stimulated cells (5×10^4 cells/well) were infected with primary HIV-1 isolates at 500 TCID50 (0.01 MOI) in the absence or presence of small molecule inhibitor at graded concentrations. Culture media were changed every 3 days and replaced with fresh media containing freshly prepared inhibitor. The supernatants were collected 7 days post-infection and tested for p24 antigen by ELISA. The inhibition of p24 production in PBMC was measured over a range of concentrations and the concentration required to inhibit 50% (IC50) of the p24 production was calculated by the GraphPad Prism software.
as §3

[11] = system: HIV-1 AZT-R; assay: Antiviral activity (p24) against RT-resistant isolate AZT-R in MT-2; assay type: cell-based; settings: Human immunodeficiency virus 1
Description: as §1, with “ELISA®. The IC50 values were calculated by the GraphPad Prism software (GraphPad Software®, Inc.) and the values were classified as IC50<10 μM and IC50>10 μM.” for “ELISA®.”
as §3

[12] = system: HIV-1RF/L-323-12-3; assay: Antiviral activity (p24) against protease resistant isolate HIV-1RF/L-323-12-3 in MT-2; assay type: cell-based; settings: Human immunodeficiency virus 1
Description: as §1, with “ELISA®. The IC50 values were calculated by the GraphPad Prism software (GraphPad Software®, Inc.) and the values were classified as IC50<10 μM and IC50>10 μM.” for “ELISA®.”
as §3

[13] = system: HIV-1 92US657; assay: Antiviral activity (p24) against primary isolate 92US657 in PBMC; assay type: cell-based; settings: Human immunodeficiency virus 1, 92US657, subtype B, R5, primary isolate
Description: as §4, §3

[14] = system: HIV-1 93IN101; assay: Antiviral activity (p24) against primary isolate 93IN101 in PBMC; assay type: cell-based; settings: Human immunodeficiency virus 1, 93IN101, subtype C, R5, primary isolate
Description: as §4, §3

[15] = system: HIV-1 93Br020; assay: Antiviral activity (p24) against primary isolate 93Br020 in PBMC; assay type: cell-based; settings: Human immunodeficiency virus 1, 93Br020, subtype F, R5X4, primary isolate
Description: as §4, §3

[16] = system: HIV-1 RU570; assay: Antiviral activity (p24) against primary isolate RU570 in PBMC; assay type: cell-based; settings: Human immunodeficiency virus 1, RU570, subtype G, R5, primary isolate
Description: as §4, §3

[17] = system: HIV-1 BCF02; assay: Antiviral activity (p24) against primary isolate BCF02 in PBMC; assay type: cell-based; settings: Human immunodeficiency virus 1, BCF02, Group (O), R5, primary isolate
Description: as §4, §3

[18] = system: Gag-Pol expressing 293 T cells; assay: Cell-based mature particle formation (VLP), electron microscopy of Gag-Pol transfected 293 T cells; set-up: species or system HIV-1
Description: In the cell-based system, the impact of NYAD-S6 on virus-like particle (VLP) release and morphology was analyzed by electron microscopy one day post-transfection with plasmid encoding Gag-Pol. Forty thousand 293 T cells were seeded per well in a 6-well plate on the day before transfection. […] The cells were then fixed in 3% glutaraldehyde in 100 mM sodium cacodylate for 1 hour and post-fixed in 1% OsO4 in 100 mM sodium cacodylate for another 1 hour. Specimens were then dehydrated through graded series of ethanol solutions and embedded in EPON® media. After staining with uranyl acetate and lead citrate, ultra-thin sections were examined under a Philips EM410 electron microscope.
In the case of untreated cells transfected with a Gag-Pol expression vector, a large number of mature particles containing electron-dense core structures were found (FIG. 2A).

[19] = read-out: IC50 (concentration that provides 50% inhibition of HIV-1 p24), Table 1, formula I
[20] = Table 1, formula I, read-out: CC50 (concentration that causes 50% cytotoxicity)
[21] = Table 2, formula II, read-out: CC50

| SMILES | IC50 [3, 19] [µM] | Activity against a broad range of HIV-1 laboratory-adapted and primary isolates [3] | CC50 at 4 days [4] [µM] | CC50 [4, 20] [µM] | CC50 at 7 days [5] [µM] | IC50 [6] [µM] | IC50 [7] [µM] | IC50 [8] [µM] | IC50 [9] [µM] | IC50 [10] [µM] | IC50 [11] [µM] | IC50 [13] [µM] | IC50 [14] [µM] | IC50 [16] [µM] | IC50 [17] [µM] | other results |
| --- | --- | --- | --- | --- | --- | --- | --- | --- | --- | --- | --- | --- | --- | --- | --- | --- |
| Cc1ccc(NC(=O)NCCSCc2ccc(CN(C)C)o2)cc1Cl [CAP-1] |  |  |  |  |  |  |  |  |  |  |  |  |  |  |  | Kd [1]: ~800 µM; HIV-1 inhibition in viral infectivity assays [2]: dose-dependent HIV-1 inhibition |
| Cc1ccc2[nH]c(=O)c(CN(Cc3ccco3)C(=O)c3ccc(Cl)cc3)cc2c1 [NYAD-S6] | < 10 | consistently potent activity | > 50 | > 10 | > 50 | < 10 | < 10 | < 10 | < 10 | < 10 | < 10 | < 10 | < 10 | < 10 | < 10 | IC50 [12]: < 10 µM; IC50 [15]: < 10 µM; Formation of electron-dense core structures ([18]; 0.4 μM): markedly inhibited; Formation of electron-dense core structures ([18]; 2 μM): markedly inhibited; Formation of electron-dense core structures ([18]; 10 μM): markedly inhibited; Mature particle formation ([18]; FIGS. 2A-D, 0.4, 2 and 10 μM vs control): dramatic decrease in mature particle formation |
| Cc1cc(=O)n2c3ccccc3n(CC(O)CNc3ccc(F)cc3)c2c1C#N (centres unmarked) [NYAD-S8] |  | consistently potent activity | > 50 |  | > 50 | > 10 | < 10 | < 10 | < 10 | < 10 | < 10 | < 10 | < 10 | < 10 | > 10 | IC50 ([3]; Table 2, formula II): > 10 µM; CC50 [4, 21]: > 10 µM; IC50 [12]: < 10 µM; IC50 [15]: < 10 µM |
| Cc1cc(=O)n2c3ccccc3n(CC(O)CN3CCN(C(c4ccccc4)c4ccccc4)CC3)c2c1C#N (centres unmarked) [NYAD-S17] |  | consistently potent activity | < 50 |  | < 50 | < 10 | < 10 | < 10 | < 10 | < 10 | < 10 | < 10 | < 10 | < 10 | < 10 | IC50 ([3]; Table 2, formula II): < 10 µM; CC50 [4, 21]: > 10 µM |
| CCc1ccc2[nH]c(=O)c(CN(Cc3cccs3)C(=O)c3ccco3)cc2c1 [NYAD-S102] | > 10 |  |  | > 10 |  |  |  |  |  |  |  |  |  |  |  |  |
| Cc1cc(C)c2[nH]c(=O)c(CN(Cc3ccco3)C(=O)c3ccc(F)cc3)cc2c1 [NYAD-S103] | > 10 |  |  | > 10 |  |  |  |  |  |  |  |  |  |  |  |  |
| Cc1cc(C)c2cc(CN(Cc3ccco3)C(=O)C3CCCCC3)c(=O)[nH]c2c1 [NYAD-S104] | > 10 |  |  | > 10 |  |  |  |  |  |  |  |  |  |  |  |  |
| COc1ccc2cc(CN(Cc3ccco3)C(=O)c3ccccc3)c(=O)[nH]c2c1 [NYAD-S105] | > 10 |  |  | > 10 |  |  |  |  |  |  |  |  |  |  |  |  |
| CCOc1ccc2[nH]c(=O)c(CN(Cc3ccco3)C(=O)c3ccco3)cc2c1 [NYAD-S106] | > 10 |  |  | > 10 |  |  |  |  |  |  |  |  |  |  |  |  |
